# Measured values reported in patent publication US20100298141A1, “SUBSTITUTED PYRIDINE N-OXIDE HERBICIDES” (E. I. DU PONT DE NEMOURS AND COMPANY, priority 2007, published 2010).
# Legend:
# [1] = system: lambsquarters; test: Test C pre-/postemergence test; assay type: in vivo, Chenopodium album
# Summary of the method: (§1)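 Compounds in a non-phytotoxic solvent with surfactant applied preemergence to seeded pots and, at the same time, postemergence to plants 2–18 cm tall (1- to 4-leaf stage). Paddy tests: pots flooded to 3 cm, compound applied into the water, depth held throughout.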
# [2] = system: crabgrass; test: Test A pre-/postemergence greenhouse test; assay type: in vivo, Digitaria sanguinalis; conditions: for Crabgrass, Large plant response rating: 0 to 100 scale
# Summary of the method: (§2)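 Untreated controls served as the reference for visual injury ratings taken about ten days after spraying. The non-phytotoxic solvent/surfactant formulation was applied preemergence to seeded loam and sand and postemergence to plants two to ten cm high.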
# [3] = system: umbrella sedge; test: Test C flooded paddy test; assay type: in vivo, Cyperus difformis; conditions: Flood
# Summary of the method: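 Ratings were visual and made relative to untreated controls after 13 to 15 greenhouse days.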
# [4] = system: soybean; test: Test C pre-/postemergence test; assay type: in vivo, Glycine max
# Summary of the method: as §1
# [5] = system: giant foxtail; test: Test C pre-/postemergence test; assay type: in vivo, Setaria faberii
# Summary of the method: as §1
# [6] = system: johnsongrass; test: Test C pre-/postemergence test; assay type: in vivo, Sorghum halepense
# Summary of the method: as §1
# [7] = system: corn; test: Test C pre-/postemergence test; assay type: in vivo, Zea mays
# Summary of the method: as §1
# [8] = system: wheat; test: Test A pre-/postemergence greenhouse test; assay type: in vivo, Triticum aestivum; conditions: for Wheat plant response rating: 0 to 100 scale
# Summary of the method: as §2
# [9] = system: yellow nutsedge; test: Test C pre-/postemergence test; assay type: in vivo, Cyperus esculentus
# Summary of the method: as §1
# [10] = system: downy brome; test: Test C pre-/postemergence test; assay type: in vivo, Bromus tectorum
# Summary of the method: as §1
# [11] = system: woolly cupgrass; test: Test C pre-/postemergence test; assay type: in vivo, Eriochloa villosa
# Summary of the method: as §1
# [12] = system: cocklebur; test: Test C pre-/postemergence test; assay type: in vivo, Xanthium strumarium
# Summary of the method: as §1
# [13] = system: giant foxtail; test: Test A pre-/postemergence greenhouse test; assay type: in vivo, Setaria faberi; conditions: for Foxtail, Giant plant response rating: 0 to 100 scale
# Summary of the method: as §2
# [14] = system: Goosegrass; test: Test C pre-/postemergence test; assay type: in vivo, Eleusin indica
# Summary of the method: as §1
# [15] = system: morningglory; test: Test A pre-/postemergence greenhouse test; assay type: in vivo, Ipomoea spp.; conditions: for Morningglory plant response rating: 0 to 100 scale
# Summary of the method: as §2
# [16] = system: morningglory; test: Test C pre-/postemergence test; assay type: in vivo, Ipomoea coccinea
# Summary of the method: as §1
# [17] = system: common ragweed; test: Test C pre-/postemergence test; assay type: in vivo, Ambrosia elation
# Summary of the method: as §1
# [18] = 31 g ai/ha, Preemergence, scale 0 to 100
# [19] = 62 g ai/ha, preemergence, scale 0 (no effect) to 100 (complete control)
# [20] = preemergence, 125 g ai/ha, scale 0 (no effect) to 100 (complete control)
# [21] = Postemergence, 125 g ai/ha, 0 is no effect, 100 is complete control
# [22] = Postemergence, 500 g ai/ha, 0 is no effect, 100 is complete control
# [23] = Preemergence, 125 g ai/ha, 0 no effect, 100 complete control
# [24] = Preemergence, 500 g ai/ha, 0 to 100 scale where 0 is no effect and 100 is complete control
smiles,measurement,setting,value
Cn1nc(C(F)(F)F)c(C[S+]([O-])c2ccc(Br)c[n+]2[O-])c1OC(F)F (racemic) [Compound 16],Lambsquarters plant response rating,[1]; [18],80
same,Lambsquarters plant response rating,[1]; [19],90
same,"Plant response rating (0 to 100), Lambsquarters","[1]; Preemergence, 250 g ai/ha",100
same,Lambsquarters plant response rating,[1]; [20],100
same,"Crabgrass, Large plant response rating",[2]; [21],70
same,"Crabgrass, Large plant response rating",[2]; [22],90
same,"Crabgrass, Large plant response rating",[2]; [23],80
same,"Plant response rating, Crabgrass, Large",[2]; [24],100
same,"Plant response rating, Sedge, Umbrella","[3]; 31 g ai/ha, scale 0 to 100 (0 no effect, 100 complete control)",0
same,"Plant response rating, Sedge, Umbrella","[3]; 62 g ai/ha, scale 0 to 100, 0 no effect, 100 complete control, 13 to 15 days",0
same,"Plant response rating, Sedge, Umbrella","[3]; 125 g ai/ha, scale 0 to 100, 0 no effect, 100 complete control, 13 to 15 days",0
same,"Plant response rating, Sedge, Umbrella","[3]; 250 g ai/ha, scale 0 to 100, 0 no effect, 100 complete control, 13 to 15 days",0
same,Soybean plant response rating,[4]; [18],0
same,Soybean plant response rating,[4]; [19],30
same,"Plant response rating (0 to 100), Soybean","[4]; Preemergence, 250 g ai/ha",80
same,Soybean plant response rating,[4]; [20],60
same,"Foxtail, Giant plant response rating",[5]; [18],80
same,"Foxtail, Giant plant response rating",[5]; [19],100
same,"Plant response rating (0 to 100), Foxtail, Giant","[5]; Preemergence, 250 g ai/ha",100
same,Johnsongrass plant response rating,[6]; [18],100
same,Johnsongrass plant response rating,[6]; [19],100
same,"Plant response rating (0 to 100), Johnsongrass","[6]; Preemergence, 250 g ai/ha",100
same,Johnsongrass plant response rating,[6]; [20],100
same,Corn plant response rating,[7]; [18],40
same,Corn plant response rating,[7]; [19],95
same,"Plant response rating (0 to 100), Corn","[7]; Preemergence, 250 g ai/ha",100
same,Corn plant response rating,[7]; [20],98
same,Wheat plant response rating,[8]; [21],60
same,Wheat plant response rating,[8]; [22],70
same,Wheat plant response rating,[8]; [23],60
same,"Plant response rating, Wheat",[8]; [24],80
same,"Nutsedge, Yellow plant response rating",[9]; [18],60
same,"Nutsedge, Yellow plant response rating",[9]; [19],80
same,"Plant response rating (0 to 100), Nutsedge, Yellow","[9]; Preemergence, 250 g ai/ha",100
same,"Nutsedge, Yellow plant response rating",[9]; [20],85
same,"Bromegrass, Downy plant response rating",[10]; [18],20
same,"Bromegrass, Downy plant response rating",[10]; [19],50
same,"Plant response rating (0 to 100), Bromegrass, Downy","[10]; Preemergence, 250 g ai/ha",60
same,"Bromegrass, Downy plant response rating",[10]; [20],55
same,"Cupgrass, Woolly plant response rating",[11]; [18],20
same,"Cupgrass, Woolly plant response rating",[11]; [19],80
same,"Plant response rating (0 to 100), Cupgrass, Woolly","[11]; Preemergence, 250 g ai/ha",100
same,"Cupgrass, Woolly plant response rating",[11]; [20],95
same,Cocklebur plant response rating,[12]; [18],0
same,Cocklebur plant response rating,[12]; [19],0
same,"Plant response rating (0 to 100), Cocklebur","[12]; Preemergence, 250 g ai/ha",0
same,Cocklebur plant response rating,[12]; [20],0
same,"Foxtail, Giant plant response rating",[13]; [21],80
same,"Foxtail, Giant plant response rating",[13]; [22],90
same,"Foxtail, Giant plant response rating",[13]; [23],100
same,"Plant response rating, Foxtail, Giant",[13]; [24],100
same,Goosegrass plant response rating,[14]; [18],98
same,Goosegrass plant response rating,[14]; [19],100
same,"Plant response rating (0 to 100), Goosegrass","[14]; Preemergence, 250 g ai/ha",100
same,Goosegrass plant response rating,[14]; [20],100
same,Morningglory plant response rating,[15]; [21],20
same,Morningglory plant response rating,[15]; [22],60
same,Morningglory plant response rating,[15]; [23],30
same,"Plant response rating, Morningglory",[15]; [24],80
same,Morningglory plant response rating,[16]; [18],0
same,Morningglory plant response rating,[16]; [19],10
same,"Plant response rating (0 to 100), Morningglory","[16]; Preemergence, 250 g ai/ha",100
same,Morningglory plant response rating,[16]; [20],95
same,Ragweed plant response rating,[17]; [18],10
same,Ragweed plant response rating,[17]; [19],45
same,Ragweed plant response rating,[17]; [20],100
